Patent US20160264523A1, “CONJUGATE COMPRISING FOLIC ACID AND INDOLE-3-CARBINOL FOR MEDICAL USE” (Dom Terry International S.R.L., priority 2013, published 2016)

How the values were obtained:
[1] = ABTS cationic free radical discoloration assay (antioxidant activity); design: key: TEAC: mM Trolox equivalent to 1 mM tested compound; settings: TEAC = concentration of Trolox having the same antioxidant ability of the tested compound at 1 mM
Description: The cationic free radical ABTS+° discoloration assay assesses the scavenging ability of an antioxidant against a preformed cationic radical (ABTS^+°) compared to Trolox, a hydrosoluble analogue of Vitamin E.

[2] = test system: inducible nitric oxide synthetase (iNos) activity in J774A.1 macrophage cells stimulated by LPS; assay: Anti-inflammatory activity: production of nitrites and release of NO; format: cell-based; settings: 24 h, J774A.1 macrophages stimulated with LPS of E. coli, n=5
Procedure: I3C, conjugate derivatives free from folic acid (PEG-I3C), and folate conjugates F-PEG-I3C, F-PEG-AD-(I3C)2, and F-PEG-βGlu-(I3C)2 were tested for their anti-inflammatory activity against the inducible nitric oxide synthetase (iNos) activity in J774A.1 macrophage cells stimulated by LPS and assessing the production of nitrites and the release of NO.
The PEG-I3C conjugates, free from folic acid, show a lower activity, thus indicating a real targeting effect of the folic acid molecule on the activated macrophage cells. […] The data are expressed as the inhibition percentage±s.e.m. vs the production of nitrites during 24 h by J774A.1 macrophage cells treated with LPS alone.

[3] = test system: collagen-induced platelet aggregation; assay: Platelet antiaggregating activity on platelet-enriched plasma; format: cell-based
Procedure: The platelet anti-aggregating effect induced by a series of mediators was tested on platelet-enriched plasma samples.

[4] = test system: tumor cells that are positive to the estrogen receptor; settings: a number of in vitro and in vivo studies (background); cited from earlier work
[5] = test system: MCF-7 (human breast adenocarcinoma); assay: Cytotoxic activity, cell growth inhibition; format: cell-based; settings: MCF-7 cells; n=4; read-out: IC50, concentration that inhibits the 50% cell growth compared to control cultures
Procedure: (§1) The studies of cytotoxic activity were carried out on three human cell lines: HT-29 (human colon adenocarcinoma), MCF-7 (human breast adenocarcinoma), and KB-3-1 (human oropharyngeal carcinoma), which cells are characterized by an overexpression of folic acid (FR+) receptors. […], conjugates free from folic acid (PEG-[…]), and the folate conjugates F-PEG-I3C, F-PEG-AD-(I3C)2, and F-PEG-βGlu-(I3C)2 were tested.

[6] = test system: HT-29 (human colon adenocarcinoma); assay: Cytotoxic activity, cell growth inhibition; format: cell-based; settings: HT-29 cells; n=4; read-out: IC50, concentration that inhibits the 50% cell growth compared to control cultures
Procedure: as §1

[7] = test system: KB-3-1 (human oropharyngeal carcinoma); assay: Cytotoxic activity, cell growth inhibition; format: cell-based; settings: KB-3-1 cells (FR+); n=4; read-out: IC50, concentration that inhibits the 50% cell growth compared to control cultures
Procedure: as §1

O=C(O)c1ccc(O)c(O)c1 [3,4-Dihydroxybenzoic acid]
ABTS assay (TEAC) [1]: 4.6 ± 0.18

O=c1cc(-c2ccc(O)cc2)oc2cc(O)cc(O)c12 [Apigenin]
ABTS assay (TEAC) [1]: 0.2 ± 0.01

O=C(O)/C=C/c1ccc(O)c(O)c1 [Caffeic acid]
ABTS assay (TEAC) [1]: 5.8 ± 0.12

OCc1c[nH]c2ccccc12 [Compound I3C, Indole-3-carbinol]
Nitrites release inhibition (% vs LPS) ([2]; 1 μg/mL): 10.0 ± 1.1% | Nitrites release inhibition (% vs LPS) ([2]; 10 μg/mL): 20.0 ± 0.9 % | Nitrites release inhibition (% vs LPS) ([2]; 100 μg/mL): 70.1 ± 1.2 % | platelet aggregation inhibition ([3]; 3 μM): 70% | platelet aggregation inhibition ([3]; 6 μM): 73% | platelet aggregation inhibition ([3]; 12 μM): 78% | platelet aggregation inhibition ([3]; 25 μM): 79% | inhibition of the development of tumor cells positive to the estrogen receptor [4]: up to 90% | ABTS assay (TEAC) [1]: 3.8 ± 0.12 | IC50 [5]: 30 ± 0.7 µM | IC50 [6]: 45.1 ± 1.7 µM | IC50 [7]: 93 ± 2.1 µM

COc1ccc([C@@H]2CC(=O)c3c(O)cc(O[C@@H]4O[C@H](CO[C@@H]5O[C@@H](C)[C@H](O)[C@@H](O)[C@H]5O)[C@@H](O)[C@H](O)[C@H]4O)cc3O2)cc1O [Hesperidin]
ABTS assay (TEAC) [1]: 0.5 ± 0.09

O=c1cc(-c2ccc(O)c(O)c2)oc2cc(O)cc(O)c12 [Luteolin]
ABTS assay (TEAC) [1]: 2.8 ± 0.09

O=C1C[C@@H](c2ccc(O)cc2)Oc2cc(O)cc(O)c21 [Naringenin]
ABTS assay (TEAC) [1]: 1.4 ± 0.03

C[C@@H]1O[C@@H](O[C@H]2[C@H](Oc3cc(O)c4c(c3)O[C@H](c3ccc(O)cc3)CC4=O)O[C@H](CO)[C@@H](O)[C@@H]2O)[C@H](O)[C@H](O)[C@H]1O [Naringin]
ABTS assay (TEAC) [1]: 0.5 ± 0.01

C[C@@H]1O[C@@H](O[C@@H]2[C@@H](O)[C@H](OCCc3ccc(O)c(O)c3)O[C@H](CO)[C@H]2OC(=O)/C=C/c2ccc(O)c(O)c2)[C@H](O)[C@H](O)[C@H]1O [Verbascoside]
ABTS assay (TEAC) [1]: 5.3 ± 0.22

Indole-3-Carbinol-PEG600-Indole-3-Carbinol [I3C-PEG600-I3C]
Nitrites release inhibition (% vs LPS) ([2]; 1 μg/mL): 32.2 ± 1.4 % | Nitrites release inhibition (% vs LPS) ([2]; 10 μg/mL): 45.7 ± 1.7 % | Nitrites release inhibition (% vs LPS) ([2]; 100 μg/mL): 84.3 ± 3.8 % | ABTS assay (TEAC) [1]: 5.8 ± 0.41

PEG550-Indole-3-Carbinol [PEG550-I3C]
Nitrites release inhibition (% vs LPS) ([2]; 1 μg/mL): 12.5 ± 0.8% | Nitrites release inhibition (% vs LPS) ([2]; 10 μg/mL): 34.1 ± 1.2 % | Nitrites release inhibition (% vs LPS) ([2]; 100 μg/mL): 72.5 ± 2.4 % | ABTS assay (TEAC) [1]: 4.2 ± 0.26

Tocopherol
ABTS assay (TEAC) [1]: 2.1 ± 0.07
